Data published in patent publication US9499550B2 (BRISTOL-MYERS SQUIBB COMPANY, priority 2012, dated 2016).

Tests used:
[1] = tested on: HCV genotype 1b (Con1) replicon in HUH-7 cells; assay: HCV replicon luciferase reporter assay, genotype 1b; format: cell-based; settings: Hepatitis C virus, Huh-7, 72 h, HCV genotype 1b replicon luciferase, 3 days incubation, read-out: LE_1b (EC50, range)
Outline: (§1)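 Replicon inhibition for both genotypes was measured as Renilla luciferase signal (EnduRen, 7.5 μM final, 2 h) after 3-day, 37° C exposure of replicon-bearing HUH-7 cells in 4% FCS DMEM, 0.5% DMSO. The 1b construct carries S1179I; the 1a H77 construct carries P1496L and S2204I. Twenty-point, 3-fold dilutions were fitted four-parametrically for EC50, and CC50 was taken from multiplexed Cell Titer-Blue.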

[2] = tested on: HCV genotype 1a (H77 strain) replicon in HUH-7 cells; assay: HCV replicon luciferase reporter assay, genotype 1a; format: cell-based; settings: Hepatitis C virus, Huh-7, 72 h, HCV genotype 1a replicon luciferase, 3 days incubation, read-out: LE_1a (EC50, range)
Outline: as §1

Compound | EC50 [1] [nM] | EC50 [2] [nM]
CCOc1ccc2c(O[C@@H]3C[C@H]4C(=O)N[C@]5(C(=O)NS(=O)(=O)C6(C)CC6)C[C@H]5/C=C\CC[C@@H](C)C[C@@H](C)[C@H](NC(=O)NC(C)(C)C(F)(F)F)C(=O)N4C3)nccc2c1 [Compound 5144, (2R,6S,7R,9R,13aS,14aR,16aS,Z)-2-((6-ethoxyisoquinolin-1-yl)oxy)-7,9-dimethyl-N-((1-methylcyclopropyl)sulfonyl)-5,16-dioxo-6-(3-(1,1,1-trifluoro-2-methylpropan-2-yl)ureido)-1,2,3,5,6,7,8,9,10,11,13a,14,14a,15,16,16a-hexadecahydrocyclopropa[e]pyrrolo[1,2-a][1,4]diazacyclopentadecine-14a-carboxamide] | < 5.46 | 4.82 to 103
CC(C)Oc1ccc2c(O[C@@H]3C[C@H]4C(=O)N[C@]5(C(=O)NS(=O)(=O)C6CC6)C[C@H]5/C=C\CC[C@H](C)C[C@@H](C)[C@H](NC(=O)OC(C)(C)C)C(=O)N4C3)nccc2c1 [Compound 5145, tert-butyl ((2R,6S,7R,9S,13aS,14aR,16aS,Z)-14a-((cyclopropylsulfonyl)carbamoyl)-2-((6-isopropoxyisoquinolin-1-yl)oxy)-7,9-dimethyl-5,16-dioxo-1,2,3,5,6,7,8,9,10,11,13a,14,14a,15,16,16a-hexadecahydrocyclopropa[e]pyrrolo[1,2-a][1,4]diazacyclopentadecin-6-yl)carbamate] | < 5.46 | 4.82 to 103
CC(C)Oc1ccc2c(O[C@@H]3C[C@H]4C(=O)N[C@]5(C(=O)NS(=O)(=O)C6CC6)C[C@H]5/C=C\CC[C@@H](C)C[C@@H](C)[C@H](NC(=O)OC(C)(C)C)C(=O)N4C3)nccc2c1 [Compound 5146, tert-butyl ((2R,6S,7R,9R,13aS,14aR,16aS,Z)-14a-((cyclopropylsulfonyl)carbamoyl)-2-((6-isopropoxyisoquinolin-1-yl)oxy)-7,9-dimethyl-5,16-dioxo-1,2,3,5,6,7,8,9,10,11,13a,14,14a,15,16,16a-hexadecahydrocyclopropa[e]pyrrolo[1,2-a][1,4]diazacyclopentadecin-6-yl)carbamate] | < 5.46 | < 5.46
CC(C)Oc1ccc2c(O[C@@H]3C[C@H]4C(=O)N[C@]5(C(=O)NS(=O)(=O)C6CC6)C[C@H]5/C=C\CC[C@H](C)C[C@@H](C)[C@H](NC(=O)OC(C)(C)C(F)(F)F)C(=O)N4C3)nccc2c1 [Compound 5147, 1,1,1-trifluoro-2-methylpropan-2-yl((2R,6S,7R,9S,13aS,14aR,16aS,Z)-14a-((cyclopropylsulfonyl)carbamoyl)-2-((6-isopropoxyisoquinolin-1-yl)oxy)-7,9-dimethyl-5,16-dioxo-1,2,3,5,6,7,8,9,10,11,13a,14,14a,15,16,16a-hexadecahydrocyclopropa[e]pyrrolo[1,2-a][1,4]diazacyclopentadecin-6-yl)carbamate] | 4.82 to 103 | 4.82 to 103
CC(C)Oc1ccc2c(O[C@@H]3C[C@H]4C(=O)N[C@]5(C(=O)NS(=O)(=O)C6CC6)C[C@H]5/C=C\CC[C@@H](C)C[C@@H](C)[C@H](NC(=O)OC(C)(C)C(F)(F)F)C(=O)N4C3)nccc2c1 [Compound 5148, 1,1,1-trifluoro-2-methylpropan-2-yl((2R,6S,7R,9R,13aS,14aR,16aS,Z)-14a-((cyclopropylsulfonyl)carbamoyl)-2-((6-isopropoxyisoquinolin-1-yl)oxy)-7,9-dimethyl-5,16-dioxo-1,2,3,5,6,7,8,9,10,11,13a,14,14a,15,16,16a-hexadecahydrocyclopropa[e]pyrrolo[1,2-a][1,4]diazacyclopentadecin-6-yl)carbamate] | < 5.46 | < 5.46
CC(C)Oc1ccc2c(O[C@@H]3C[C@H]4C(=O)N[C@]5(C(=O)NS(=O)(=O)C6CC6)C[C@H]5/C=C\CC[C@H](C)C[C@@H](C)[C@H](NC(=O)O[C@H](C)C(F)(F)F)C(=O)N4C3)nccc2c1 [Compound 5149, (R)-1,1,1-trifluoropropan-2-yl((2R,6S,7R,9S,13aS,14aR,16aS,Z)-14a-((cyclopropylsulfonyl)carbamoyl)-2-((6-isopropoxyisoquinolin-1-yl)oxy)-7,9-dimethyl-5,16-dioxo-1,2,3,5,6,7,8,9,10,11,13a,14,14a,15,16,16a-hexadecahydrocyclopropa[e]pyrrolo[1,2-a][1,4]diazacyclopentadecin-6-yl)carbamate] | < 5.46 | 4.82 to 103
CC(C)Oc1ccc2c(O[C@@H]3C[C@H]4C(=O)N[C@]5(C(=O)NS(=O)(=O)C6CC6)C[C@H]5/C=C\CC[C@@H](C)C[C@@H](C)[C@H](NC(=O)O[C@H](C)C(F)(F)F)C(=O)N4C3)nccc2c1 [Compound 5150, (R)-1,1,1-trifluoropropan-2-yl((2R,6S,7R,9R,13aS,14aR,16aS,Z)-14a-((cyclopropylsulfonyl)carbamoyl)-2-((6-isopropoxyisoquinolin-1-yl)oxy)-7,9-dimethyl-5,16-dioxo-1,2,3,5,6,7,8,9,10,11,13a,14,14a,15,16,16a-hexadecahydrocyclopropa[e]pyrrolo[1,2-a][1,4]diazacyclopentadecin-6-yl)carbamate] | < 5.46 | < 5.46
[2H]C([2H])([2H])C(C)(OC(=O)N[C@@H]1C(=O)N2C[C@H](Oc3nccc4cc(OC(C)C)ccc34)C[C@H]2C(=O)N[C@]2(C(=O)NS(=O)(=O)C3CC3)C[C@H]2/C=C\CC[C@H](C)C[C@H]1C)C([2H])([2H])[2H] [Compound 5152, 1,1,1,3,3,3-hexadeutero-2-methylpropan-2-yl((2R,6S,7R,9S,13aS,14aR,16aS,Z)-14a-((cyclopropylsulfonyl)carbamoyl)-2-((6-isopropoxyisoquinolin-1-yl)oxy)-7,9-dimethyl-5,16-dioxo-1,2,3,5,6,7,8,9,10,11,13a,14,14a,15,16,16a-hexadecahydrocyclopropa[e]pyrrolo[1,2-a][1,4]diazacyclopentadecin-6-yl)carbamate] | 4.82 to 103 | 4.82 to 103
[2H]C([2H])([2H])C(C)(OC(=O)N[C@@H]1C(=O)N2C[C@H](Oc3nccc4cc(OC(C)C)ccc34)C[C@H]2C(=O)N[C@]2(C(=O)NS(=O)(=O)C3CC3)C[C@H]2/C=C\CC[C@@H](C)C[C@H]1C)C([2H])([2H])[2H] [Compound 5153, 1,1,1,3,3,3-hexadeutero-2-methylpropan-2-yl((2R,6S,7R,9R,13aS,14aR,16aS,Z)-14a-((cyclopropylsulfonyl)carbamoyl)-2-((6-isopropoxyisoquinolin-1-yl)oxy)-7,9-dimethyl-5,16-dioxo-1,2,3,5,6,7,8,9,10,11,13a,14,14a,15,16,16a-hexadecahydrocyclopropa[e]pyrrolo[1,2-a][1,4]diazacyclopentadecin-6-yl)carbamate] | < 5.46 | < 5.46
[2H]C([2H])([2H])C(OC(=O)N[C@@H]1C(=O)N2C[C@H](Oc3nccc4cc(OC(C)C)ccc34)C[C@H]2C(=O)N[C@]2(C(=O)NS(=O)(=O)C3CC3)C[C@H]2/C=C\CC[C@H](C)C[C@H]1C)(C([2H])([2H])[2H])C([2H])([2H])[2H] [Compound 5154, 1,1,1,3,3,3-hexadeutero-2-(trideuteromethyl)propan-2-yl((2R,6S,7R,9S,13aS,14aR,16aS,Z)-14a-((cyclopropylsulfonyl)carbamoyl)-2-((6-isopropoxyisoquinolin-1-yl)oxy)-7,9-dimethyl-5,16-dioxo-1,2,3,5,6,7,8,9,10,11,13a,14,14a,15,16,16a-hexadecahydrocyclopropa[e]pyrrolo[1,2-a][1,4]diazacyclopentadecin-6-yl)carbamate] | 4.82 to 103 | 4.82 to 103
[2H]C([2H])([2H])C(OC(=O)N[C@@H]1C(=O)N2C[C@H](Oc3nccc4cc(OC(C)C)ccc34)C[C@H]2C(=O)N[C@]2(C(=O)NS(=O)(=O)C3CC3)C[C@H]2/C=C\CC[C@@H](C)C[C@H]1C)(C([2H])([2H])[2H])C([2H])([2H])[2H] [Compound 5155, 1,1,1,3,3,3-hexadeutero-2-(trideuteromethyl)propan-2-yl((2R,6S,7R,9R,13aS,14aR,16aS,Z)-14a-((cyclopropylsulfonyl)carbamoyl)-2-((6-isopropoxyisoquinolin-1-yl)oxy)-7,9-dimethyl-5,16-dioxo-1,2,3,5,6,7,8,9,10,11,13a,14,14a,15,16,16a-hexadecahydrocyclopropa[e]pyrrolo[1,2-a][1,4]diazacyclopentadecin-6-yl)carbamate] | < 5.46 | < 5.46
CC(C)Oc1ccc2c(O[C@@H]3C[C@H]4C(=O)N[C@]5(C(=O)NS(=O)(=O)C6(C)CC6)C[C@H]5/C=C\CC[C@H](C)C[C@@H](C)[C@H](NC(=O)OC(C)(C)C)C(=O)N4C3)nccc2c1 [Compound 5156, tert-butyl ((2R,6S,7R,9S,13aS,14aR,16aS,Z)-2-((6-isopropoxyisoquinolin-1-yl)oxy)-7,9-dimethyl-14a-(((1-methylcyclopropyl)sulfonyl)carbamoyl)-5,16-dioxo-1,2,3,5,6,7,8,9,10,11,13a,14,14a,15,16,16a-hexadecahydrocyclopropa[e]pyrrolo[1,2-a][1,4]diazacyclopentadecin-6-yl)carbamate] | 4.82 to 103 | 4.82 to 103
CC(C)Oc1ccc2c(O[C@@H]3C[C@H]4C(=O)N[C@]5(C(=O)NS(=O)(=O)C6(C)CC6)C[C@H]5/C=C\CC[C@@H](C)C[C@@H](C)[C@H](NC(=O)OC(C)(C)C)C(=O)N4C3)nccc2c1 [Compound 5157, tert-butyl ((2R,6S,7R,9R,13aS,14aR,16aS,Z)-2-((6-isopropoxyisoquinolin-1-yl)oxy)-7,9-dimethyl-14a-(((1-methylcyclopropyl)sulfonyl)carbamoyl)-5,16-dioxo-1,2,3,5,6,7,8,9,10,11,13a,14,14a,15,16,16a-hexadecahydrocyclopropa[e]pyrrolo[1,2-a][1,4]diazacyclopentadecin-6-yl)carbamate] | < 5.46 | < 5.46
